From patent publication US12364752B2, “Methods of enhancing immunogenicity of poorly immunogenic antigen-specific vaccines using oral yeast beta-glucans” (priority 2018, dated 2025)

Columns and labels:
[1] = Livingston et al. 1994; cited from earlier work
[2] = test system: neuroblastoma; experiment: Phase I trial of GD2/GD3 bivalent vaccine with oral beta-glucan; settings: at 150 μg/m^2 s.c. with bivalent vaccine
Experimental: Patients with neuroblastoma in ≥2nd complete/very good partial remission received vaccine subcutaneously (at weeks 1, 2, 3, 8, 20, 32 and 52). The bivalent vaccine contained 30 μg each of GD2 and GD3 stabilized as lactones and conjugated to the immunologic carrier protein keyhole limpet hemocyanin (KLH); and OPT-821, which was dose escalated as 50, 75, 100, and 150 μg/m^2 per s.c. injection. Oral beta-glucan administration (40 mg/kg/day, 14 days on/14 days off x 12 cycles) was started at week 6 (FIG. 14).

[3] = test system: Ramos tumor cells; experiment: Ramos xenografts in SCID mice, Rituxan plus oral botanical adjuvants; assay type: in vivo; settings: Rituxan alone at 5 μg dose
Experimental: SCID mice (Jackson Lab, Bar Harbor ME) were first implanted subcutaneously in the flank area with Ramos tumor cells (a human lymphoma cell line; Pagel et al., Blood 108:328-36 (2006)) freshly harvested from culture and suspended in 100 μl matrigel (BD Biosciences, Billerica MA). When small palpable tumors started to appear (6-8 mm size), mice were randomly separated into treatment groups of 5 mice each. Mice were then given either oral botanical adjuvant, intravenous Rituxan mAb, or oral botanical adjuvant plus Rituxan mAb for 3 weeks. MAb was given twice a week through the tail vein. 2 mg of the tested botanical adjuvant (20 mg/ml solution or suspension in LPS-free water) was given by intragastric injection for 5 times a week. Tumor sizes (length and width) were measured twice a week with calipers. Mice were sacrificed when tumors were larger than 20 mm in length. For each botanical adjuvant, two endpoints were obtained: (1) positive anti-tumor effect [defined as statistically different from control group (treated with antibody alone)] and (2) anti-tumor index defined as (Mean tumor growth rate in mice treated with antibody alone)/(Mean tumor growth rate in mice treated with botanical adjuvant+antibody).

Substance	maximal tolerated dose [1]	dose-limiting toxicity [2]	tumor growth suppressed [3]
QS21	20 µg	no dose-limiting toxicity	–
Rituxan: rituximab mAb	–	–	30%
